# Results: article PMC8658948, “Exploring Amantadine Derivatives as Urease Inhibitors: Molecular Docking and Structure–Activity Relationship (SAR) Studies” (Molecules, 2021)
# pIC50, pKi: −log10 of the molar value. Like-named read-outs stand apart in the source and are kept apart here.
# Columns and labels:
# [1] = biological target: T1, Jack bean urease (Canavalia ensiformis, UniProt P07374); test: biochemical
# Method: The amount of NH3 produced with indophenol’s method reported in the literature was used to estimate Jack bean urease activity. In a 96-well plate, reaction mixtures containing 20 µL of Jack bean urease at 5 U/mL and 20 µL of compounds in 50 µL of potassium phosphate buffer (100 mM urea, 10 mM K2HPO4, 1 mM EDTA, and 10 mM LiCl, pH 8.2) were incubated for 30 min at 37 °C. Briefly, 50 μL each of phenol reagents (1%, w/v phenol and 0.005%, w/v sodium nitroprusside) and 50 μL of alkali reagent (0.5%, w/v NaOH and 0.1% NaOCl were added to each well. The absorbance at 625 nm was evaluated after 10 min by utilizing a microplate reader (OPTIMax, Tunable). Each of the reactions was accomplished in triplicate. The urease inhibition activities were calculated using the following formula:(1) Urease inhibition activity %=ODcontrol−ODsample×100/ODcontrol where ODcontrol and ODsample represent the optical densities in the absence and presence of sample, respectively, by using thiourea as standard.
# [2] = DPPH free radical scavenging assay; details: 100 µg/mL, mean (SEM)
# Method: The 2,2-diphenyl-1-picrylhydrazyl (DPPH) test was used to assess radical scavenging activity. By using ascorbic acid as a reference inhibitor, 100 µL of DPPH ([…]), 20 µL of escalating concentrations of test compounds, and the volume adjusted to 200 µL in each well with methanol were incubated for 30 min at room temperature. At 517 nm, an OPTI Max Tunable microplate reader was used to perform assay measurements. The % inhibition caused by the investigated inhibitors was calculated after response rates were compared.
# [3] = biological target: T1, Jack bean urease; test: Kinetic analysis of urease inhibition (Lineweaver-Burk plot); assay type: biochemical; details: for Vmax: substrate urea
# From the text: The kinetic studies of the enzyme by the Lineweaver–Burk plot of 1/V versus 1/[S] in the presence of different compound concentrations produced a series of straight lines (Figure 3A). […] Thus, compounds 3f inhibit the urease non-competitively in order to form an enzyme inhibitor complex.
# Based on IC50 values, compound 3j was identified as the most powerful. Changing the concentration of urea at different concentrations of 3j (0.00, 0.0042, 0.0085, and 0.017 M) was used to study kinetics. For urease kinetics, the urea concentration was quickly adjusted from 100, 50, 25, 12.5, 6.25, and 3.12 mM. The highest preliminary velocities were determined from initial linear portion of absorbance up to 10 min after the addition of enzyme at per minute’s interval. The inhibition type was determined by Lineweaver-Burk plot (1/V) versus 1/[S] mM^−1. The EI dissociation constant Ki was ascertained by secondary plot of 1/V against inhibitor concentration. […] The results were processed by using SoftMaxPro.
# T1 sequence (P07374 whole entry, looked up): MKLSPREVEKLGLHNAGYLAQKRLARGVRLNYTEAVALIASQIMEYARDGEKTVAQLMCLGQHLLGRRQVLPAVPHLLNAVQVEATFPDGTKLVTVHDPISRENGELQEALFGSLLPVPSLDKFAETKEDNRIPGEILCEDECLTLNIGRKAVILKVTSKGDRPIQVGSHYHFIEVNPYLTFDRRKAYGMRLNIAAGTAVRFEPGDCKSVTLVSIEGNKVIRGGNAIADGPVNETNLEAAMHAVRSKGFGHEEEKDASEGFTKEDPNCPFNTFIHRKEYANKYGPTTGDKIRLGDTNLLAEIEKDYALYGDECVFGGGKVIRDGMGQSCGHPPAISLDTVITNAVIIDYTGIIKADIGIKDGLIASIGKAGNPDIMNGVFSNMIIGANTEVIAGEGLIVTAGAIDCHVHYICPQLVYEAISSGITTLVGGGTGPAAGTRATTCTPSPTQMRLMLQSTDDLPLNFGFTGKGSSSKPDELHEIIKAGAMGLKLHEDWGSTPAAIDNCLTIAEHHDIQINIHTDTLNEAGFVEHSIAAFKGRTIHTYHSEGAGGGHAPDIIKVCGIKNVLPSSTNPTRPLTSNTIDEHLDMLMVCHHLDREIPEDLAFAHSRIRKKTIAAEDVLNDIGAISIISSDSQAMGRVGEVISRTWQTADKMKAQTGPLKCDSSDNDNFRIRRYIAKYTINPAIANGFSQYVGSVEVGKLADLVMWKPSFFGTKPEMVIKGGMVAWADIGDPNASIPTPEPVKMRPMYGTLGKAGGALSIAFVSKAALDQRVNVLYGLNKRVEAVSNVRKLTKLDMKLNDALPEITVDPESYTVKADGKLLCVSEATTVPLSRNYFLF
SMILES,pIC50 [1],Free radical % Scavenging [2],melting point [°C],also measured
"O=C(NC(=S)NC12CC3CC(CC(C3)C1)C2)c1ccc(F)cc1 [Compound 3a, N-(Adamantan-1-ylcarbamothioyl)-4-fluorobenzamide]",8.00,4.18 (0.03) %,180 to 182,–
"O=C(NC(=S)NC12CC3CC(CC(C3)C1)C2)c1ccc(Cl)cc1Cl [Compound 3b, N-(Adamantan-1-ylcarbamothioyl)-2,4-dichlorobenzamide]",8.00,1.46 (0.02) %,204 to 205,–
"CCCC(=O)NC(=S)NC12CC3CC(CC(C3)C1)C2 [Compound 3c, N-(Adamantan-1-ylcarbamothioyl)butyramide]",7.52,2.51 (0.00) %,136 to 137,–
"COc1ccc(C(=O)NC(=S)NC23CC4CC(CC(C4)C2)C3)cc1 [Compound 3d, N-(Adamantan-1-ylcarbamothioyl)-4-methoxybenzamide]",7.70,1.86 (0.01) %,178 to 179,–
"O=C(NC(=S)NC12CC3CC(CC(C3)C1)C2)c1ccc(Cl)cc1 [Compound 3e, N-(Adamantan-1-ylcarbamothioyl)-4-chlorobenzamide]",7.52,13.36 (0.01) %,182 to 183,–
"CCCCC(=O)NC(=S)NC12CC3CC(CC(C3)C1)C2 [Compound 3f, N-(Adamantan-1-ylcarbamothioyl)pentanamide]",7.52,4.26 (0.00) %,141 to 142,–
"O=C(NC(=S)NC12CC3CC(CC(C3)C1)C2)c1ccccc1Cl [Compound 3g, N-(Adamantan-1-ylcarbamothioyl)-2-chlorobenzamide]",8.06,1.12 (0.03) %,185 to 187,–
"CCCCCCC(=O)NC(=S)NC12CC3CC(CC(C3)C1)C2 [Compound 3h, N-(Adamantan-1-ylcarbamothioyl)heptanamide]",8.00,15.36 (0.01) %,149 to 151,–
"O=C(NC(=S)NC12CC3CC(CC(C3)C1)C2)c1cc([N+](=O)[O-])cc([N+](=O)[O-])c1 [Compound 3i, N-(Adamantan-1-ylcarbamothioyl)-3,5-dinitrobenzamide]",8.00,5.91 (0.05) %,210 to 211,–
"CCCCCCCC(=O)NC(=S)NC12CC3CC(CC(C3)C1)C2 [Compound 3j, N-(Adamantan-1-ylcarbamothioyl)octanamide]",–,9.96 (0.06) %,158 to 159,pKi [3]: 8.15; Inhibition Type ([3]; Lineweaver-Burk plot): Non-Competitive; Vmax ([3]; inhibitor dose 0.0042 µM): 0.001561 ΔA/Min; Vmax ([3]; inhibitor dose 0.0085 µM): 0.001224 ΔA/Min; Vmax ([3]; inhibitor dose 0.017 µM): 0.001208 ΔA/Min
"NC(N)=S [Thiourea, reference compound]",–,–,–,"pIC50 ([1]; Jack bean urease, 30 min at 37 °C, pH 8.2, mean (SEM), read-out: Urease Activity IC50 ± SEM): 5.32"
"O=C1O[C@H]([C@@H](O)CO)C(O)=C1O [Vitamin C, ascorbic acid, reference compound]",–,95.15 (0.05) %,–,–
